From article PMC11714206, “Massively Parallel Screening of Toll/Interleukin‐1 Receptor (TIR)‐Derived Peptides Reveals Multiple Toll‐Like Receptors (TLRs)‐Targeting Immunomodulatory Peptides” (Advanced Science, 2024)
Several values for one entry are separate records, joined by “and”; a condition that tells them apart may be missing. Equal entries are not always repeated.

Biological target: T1, MyD88^TIR (Homo sapiens, UniProt Q99836)
T1 construct: MyD88 (residues 148–296); 6xHis; made in house; host or cells: E. coli BL21 (DE3)
T1 sequence (Q99836 148-296): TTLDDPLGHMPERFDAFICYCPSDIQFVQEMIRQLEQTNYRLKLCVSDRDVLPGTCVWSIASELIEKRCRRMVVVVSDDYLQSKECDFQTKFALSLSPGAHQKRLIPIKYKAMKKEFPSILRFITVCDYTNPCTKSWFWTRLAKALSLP
Test: T‐Surf phage library (P8 and P3) selection against MyD88^TIR, four rounds, NGS read counts
Type: binding
Conditions: for Population: 4th round of selection against MyD88 TIR, share of NGS reads; for P8_MyD88 Rank (after) / P8_MyD88 Rank (before): P8 library; for P3_MyD88 Rank (after) / P3_MyD88 Rank (before): P3 library
Summary of the method: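 Coat TIR domain 5 µg mL^−1 overnight; block 0.2% BSA/PBS 1 h, 4 °C; add phage library 1 h, RT; wash ×4 PBS/0.5% Tween‐20; elute 100 mM HCl, neutralize Tris; amplify in TG1, PEG‐precipitate. Repeat to round 4; barcode PCR, NovaSeq, count reads.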

[1] = P3_MyD88 pool: P3 T-Surf phage library
[2] = selection against MyD88, rank by count after grouping
[3] = selection against MyD88, rank by count before grouping
[4] = selection against MyD88 TIR, rank by count after grouping
[5] = selection against MyD88 TIR, rank by count before grouping
[6] = selection against MyD88, rank after grouping
[7] = selection against MyD88, rank before grouping
[8] = P3_MyD88: rank by count after grouping
[9] = P3_MyD88: rank by count before grouping
[10] = 4R selection against MyD88, rank after grouping
[11] = 4R selection against MyD88, rank before grouping
[12] = P8_MyD88: rank by count after grouping
[13] = P8_MyD88: rank by count before grouping
[14] = P8_MyD88: rank by NGS read count after grouping
[15] = P8_MyD88: rank by NGS read count before grouping

## SGFREGLWRLLELSKK
[1]
  Population: 0.00291%

## SGQAVTEDKLGWLSNP
[2]
  P8_MyD88 Rank (after): 682
[3]
  P8_MyD88 Rank (before): 1660

## SIATLLYDQLSWLDIH
[4]
  P8_MyD88 Rank (after): 201
[5]
  P8_MyD88 Rank (before): 293

## SIWWILNELQEILNYQ
[6]
  P8_MyD88 Rank (after): 542
[7]
  P8_MyD88 Rank (before): 3800

## SLLYDHLRWLGIRAFL
[6]
  P8_MyD88 Rank (after): 541
[7]
  P8_MyD88 Rank (before): 3759

## SLRKNVVSNLLEEFKR
[6]
  P3_MyD88 Rank (after): 524
[7]
  P3_MyD88 Rank (before): 3079

## SLRQNLVSNLLEEFKR
[8]
  Rank (after): 480
[9]
  Rank (before): 3075

## SLRRNLVSNLIEEFIR
[10]
  P3_MyD88 Rank (after): 580
[11]
  P3_MyD88 Rank (before): 3076

## SMMPSSDFWKELALAL
[4]
  P8_MyD88 Rank (after): 217
[5]
  P8_MyD88 Rank (before): 369

## SMTPLSDFWKELALVL
[12]
  Rank (after): 97
[13]
  Rank (before): 101
P8_MyD88 pool: P8 T-Surf phage library
  Population: 0.0231%

## SNFREGLWRLLELSKK
[1]
  Population: 0.00408%

## SNFREGLWRQQELSKK
[8]
  Rank (after): 438
[9]
  Rank (before): 3282

## SNFRKGLSRLLELSKK
[6]
  P3_MyD88 Rank (after): 572
[7]
  P3_MyD88 Rank (before): 3283

## SPLSYMWLDELVEIME
[14]
  Rank (after): 944
[15]
  Rank (before): 3764

## SPWALYELAMIIEAM
[6]
  P8_MyD88 Rank (after): 503
[7]
  P8_MyD88 Rank (before): 3761

## SPWALYELVEILTAYK
[12]
  Rank (after): 185
[13]
  Rank (before): 251

## SQRADCSWEWQKMLYP
[14]
  Rank (after): 953
[15]
  Rank (before): 1659

## SRDYASSPWALDELVL
[8]
  Rank (after): 146
[9]
  Rank (before): 3095

## SRDYATSPWALDELLR
[10]
  P3_MyD88 Rank (after): 627
[11]
  P3_MyD88 Rank (before): 3103

## SREYASCSWALTELVH
[10]
  P3_MyD88 Rank (after): 647
[11]
  P3_MyD88 Rank (before): 3106

## SRFREGLWPLLELSKK
[8]
  Rank (after): 156
[9]
  Rank (before): 3107

## SRFREGLWRLLKLSKK
[2]
  P3_MyD88 Rank (after): 715
[3]
  P3_MyD88 Rank (before): 3278

## SRLCVMCWKNCVLPN
[10]
  P3_MyD88 Rank (after): 624
[11]
  P3_MyD88 Rank (before): 3279

## SRYREGLWRLLELSKK
[8]
  Rank (after): 123
[9]
  Rank (before): 3109

## SSAWALNELVQIMKAW
[12]
  Rank (after): 399
[13]
  Rank (before): 1289

## SSCREGLWRLLELIKK
[10]
  P3_MyD88 Rank (after): 607
[11]
  P3_MyD88 Rank (before): 3259

## SSCREGLWRLLELSNK
[8]
  Rank (after): 402
[9]
  Rank (before): 3260

## SSCREGLWSLLELSKK
[6]
  P3_MyD88 Rank (after): 565
[7]
  P3_MyD88 Rank (before): 3262

## SSFCEGLWRLLELSKK
[1]
  Population: 0.00437%

## SSFHEGLWRMLELSKK
[2]
  P3_MyD88 Rank (after): 737
[3]
  P3_MyD88 Rank (before): 3250

## SSFLQGLWRLLELSKK
[6]
  P3_MyD88 Rank (after): 534
[7]
  P3_MyD88 Rank (before): 3122

## SSFLQHPWRLQKLSKK
[8]
  Rank (after): 399
[9]
  Rank (before): 3123

## SSFLQKLRRRLELSIV
[8]
  Rank (after): 478
[9]
  Rank (before): 3124

## SSFRDDLWRLLELSKK
[10]
  P3_MyD88 Rank (after): 582
[11]
  P3_MyD88 Rank (before): 3135

## SSFRDGLWRLLELSKT
[8]
  Rank (after): 106
[9]
  Rank (before): 1198

## SSFREALWRLIELSTK
[10]
  P3_MyD88 Rank (after): 667
[11]
  P3_MyD88 Rank (before): 3223

## SSFREALWRLLELSKN
[8]
  Rank (after): 167
[9]
  Rank (before): 3222

## SSFREALWRLLGLSEK
[4]
  P3_MyD88 Rank (after): 279
[5]
  P3_MyD88 Rank (before): 3225

## SSFRECLWRLEELSKK
[8]
  Rank (after): 457
[9]
  Rank (before): 3136

## SSFRECLWRLLELSKK
[1]
  Population: 0.00466%

## SSFRECLWSLPELSKK
[2]
  P3_MyD88 Rank (after): 699
[3]
  P3_MyD88 Rank (before): 3138

## SSFREDLCRLLALSNK
[4]
  P3_MyD88 Rank (after): 286
[5]
  P3_MyD88 Rank (before): 3226

## SSFREDLWRLLELSKK
[1]
  Population: 0.00437%

## SSFREGL*RLLELSKK
[1]
  Population: 0.00466%

## SSFREGLCRLLELSKK
[1]
  Population: 0.0032%

## SSFREGLCRLLELSKQ
[2]
  P3_MyD88 Rank (after): 725
[3]
  P3_MyD88 Rank (before): 3201

## SSFREGLLRLLELNKK
[8]
  Rank (after): 139
[9]
  Rank (before): 3237

## SSFREGLLRLLELSKK
[1]
  Population: 0.0032%

## SSFREGLRRLLELSKK
[1]
  Population: 0.00291%

## SSFREGLSRLPELSKK
[10]
  P3_MyD88 Rank (after): 589
[11]
  P3_MyD88 Rank (before): 3207

## SSFREGLWCLRELSKK
[8]
  Rank (after): 394
[9]
  Rank (before): 3156

## SSFREGLWHLLQLSLK
[10]
  P3_MyD88 Rank (after): 584
[11]
  P3_MyD88 Rank (before): 3198

## SSFREGLWHLLVLSKK
[8]
  Rank (after): 160
[9]
  Rank (before): 3197

## SSFREGLWRLL*LSKK
[1]
  Population: 0.00291%

## SSFREGLWRLLELCKK
[1]
  Population: 0.0032%

## SSFREGLWRLLELGKK
[1]
  Population: 0.00437%

## SSFREGLWRLLELRKK
[1]
  Population: 0.0032%

## SSFREGLWRLLELRKN
[10]
  P3_MyD88 Rank (after): 588
[11]
  P3_MyD88 Rank (before): 3169

## SSFREGLWRLLELSEK
[1]
  Population: 0.00349%

## SSFREGLWRLLELSET
[8]
  Rank (after): 145
[9]
  Rank (before): 1199

## SSFREGLWRLLELSKK
[1]
  Population: 0.00466% and 0.00437% and 0.00408% and 0.00378% and 0.00349% and 0.0032% and 0.00291%

## SSFREGLWRLLELSKN
[1]
  Population: 0.00349%

## SSFREGLWRLLELSKR
[1]
  Population: 0.00291%

## SSFREGLWRLLELSQN
[6]
  P3_MyD88 Rank (after): 544
[7]
  P3_MyD88 Rank (before): 3171

## SSFREGLWRLLELTKK
[1]
  Population: 0.0032%

## SSFREGLWRLLEVSQK
[4]
  P3_MyD88 Rank (after): 199
[5]
  P3_MyD88 Rank (before): 3151

## SSFREGLWRLLGLRKK
[6]
  P3_MyD88 Rank (after): 553
[7]
  P3_MyD88 Rank (before): 3165

## SSFREGLWRLLKLNKK
[4]
  P3_MyD88 Rank (after): 266
[5]
  P3_MyD88 Rank (before): 3181

## SSFREGLWRLLKLSKK
[1]
  Population: 0.00349%

## SSFREGLWRLMALIKK
[10]
  P3_MyD88 Rank (after): 600
[11]
  P3_MyD88 Rank (before): 3188

## SSFREGLWRLPELLR
[8]
  Rank (after): 101
[9]
  Rank (before): 402

## SSFREGLWRLPELSRK
[8]
  Rank (after): 121
[9]
  Rank (before): 3183

## SSFREGLWRLQALSKK
[8]
  Rank (after): 458
[9]
  Rank (before): 3185

## SSFREGLWRLQELSKT
[8]
  Rank (after): 158
[9]
  Rank (before): 3187

## SSFREGLWRLVYLSKK
[6]
  P3_MyD88 Rank (after): 538
[7]
  P3_MyD88 Rank (before): 3160

## SSFREGLWSLLELSKN
[8]
  Rank (after): 183
[9]
  Rank (before): 3200

## SSFREGMWRLLELSKK
[1]
  Population: 0.00408%

## SSFREGMWRLMVLSKK
[6]
  P3_MyD88 Rank (after): 562
[7]
  P3_MyD88 Rank (before): 3219

## SSFREGPWRLLALSKK
[6]
  P3_MyD88 Rank (after): 509
[7]
  P3_MyD88 Rank (before): 3216

## SSFREGPWRLLELSKN
[10]
  P3_MyD88 Rank (after): 609
[11]
  P3_MyD88 Rank (before): 3217

## SSFREGQWCLMELCKK
[4]
  P3_MyD88 Rank (after): 280
[5]
  P3_MyD88 Rank (before): 3218

## SSFREGRWRLLELSKK
[1]
  Population: 0.0032%

## SSFREGVWRLLEVSKK
[8]
  Rank (after): 151
[9]
  Rank (before): 3148

## SSFREGVWRLPEMSTK
[10]
  P3_MyD88 Rank (after): 660
[11]
  P3_MyD88 Rank (before): 3149

## SSFREQLRPALKERLP
[4]
  P3_MyD88 Rank (after): 215
[5]
  P3_MyD88 Rank (before): 1210
